Results from patent EP2140864A2 (H. Lundbeck A/S, priority 2001, dated 2002).
Like-named read-outs stand apart in the source and are kept apart here.

Target: T1, human GAL3 receptor (Homo sapiens, UniProt O60755)
T1 construct: expressed in transfected cells
T1 sequence (O60755 1-368): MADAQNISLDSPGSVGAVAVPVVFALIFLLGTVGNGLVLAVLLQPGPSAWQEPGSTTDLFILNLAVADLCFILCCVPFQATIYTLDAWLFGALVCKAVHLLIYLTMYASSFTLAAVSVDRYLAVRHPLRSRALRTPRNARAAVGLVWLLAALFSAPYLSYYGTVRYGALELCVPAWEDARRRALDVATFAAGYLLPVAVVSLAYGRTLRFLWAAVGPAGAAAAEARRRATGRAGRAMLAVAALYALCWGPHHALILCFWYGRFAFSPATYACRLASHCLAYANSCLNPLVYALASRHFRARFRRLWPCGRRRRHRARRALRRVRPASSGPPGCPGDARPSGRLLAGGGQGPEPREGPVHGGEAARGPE
Assay: Radioligand binding at cloned human GAL3 receptor
Conditions: cloned human receptor, read-out: Ki GalR3
Experimental: The present invention provides for a method of determining the binding affinity of a GAL3 antagonist, wherein the GAL3 antagonist is dissolved in a "suitable solvent". A "suitable solvent" means one which permits the measurement of binding affinity of the GAL3 antagonist to the human GAL3 receptor at concentrations less than 1 µM, preferably less than 100 nM. Examples of solvents include, but are not limited to, DMSO, ethanol, N,N-dimethylacetamide, or water. For indolones, the preferred solvent is 3% DMSO (final concentration in the assay). For pyrimidines, the preferred solvent is 1% ethanol/0.09% polypuronic acid F-127 (final concentration in the assay). For any other type of compounds, the preferred solvent is the solvent which permits the measurement of binding affinity of a GAL3 antagonist at the lowest concentration. Once a suitable solvent is ascertained for the binding assay of the human GAL3 receptor, the same solvent is used in assays to determine the binding affinity at the GAL1 receptor, the serotonin transporter, the norepinephrine transporter, and the dopamine transporter. A solvent of 0.4% DMSO is used in the central monoamine oxidase enzyme assay.
The binding properties of the pyrimidines of the present invention were evaluated at the cloned human galanin receptors, GAL1, GAL2, and GAL3, using protocols described herein.
The binding properties of the indolones of the present invention were evaluated at the cloned human galanin receptors, GAL1, GAL2, and GAL3, using protocols described herein.
LM(tk-) cells were stably transfected with the human GAL1 or GAL3 receptor. CHO cells were stably transfected with the human GAL2 receptor.
cDNAs for the human and rat GAL1, and human and rat GAL3 receptors were transfected with a G-418 resistant gene into the mouse fibroblast LM(tk-) cell line by a calcium phosphate transfection method (Cullen, 1987). Stably transfected cells were selected with G-418. Human and rat GAL2 receptors were similarly transfected into CHO cells.
Membranes were harvested from stably transfected LM(tk-) cells. Adherent cells were washed twice in ice-cold phosphate buffered saline (138 mM NaCl, 8.1 mM Na2HPO4, 2.5 mM KCl, 1.2 mM KH2PO4, 0.9 mM CaCl2, 0.5 mM MgCl2, pH 7.4) and lysed by sonication in ice-cold sonication buffer (20 mM Tris-HCl, 5 mM EDTA, pH 7.7). Large particles and debris were cleared by low speed centrifugation (200 x g, 5 min, 4°C). Membranes were collected from the supernatant fraction by centrifugation (32,000 x g, 18 min, 4°C), washed with ice-cold hypotonic buffer, and collected again by centrifugation (32,000 x g, 18 min, 4°C). The final membrane pellet was resuspended by sonication into a small volume of ice-cold binding buffer (-1 ml for every 5 plates: 10 mM NaCl, 20 mM HEPES, 0.22 mM KH2PO4, 1.26 mM CaCl2, 0.81 mM MgSO4, pH 7.4). Protein concentration was measured by the Bradford method (Bradford, 1976) using Bio-Rad Reagent, with bovine serum albumin as a standard. Membranes were held on ice for up to one hour and used fresh, or flash frozen and stored in liquid nitrogen. Membranes were prepared similarly from CHO cells.
Galanin Recentors: Binding assays were performed according to the following published methods: human GAL3 (PCT International Publication No. WO 98/15570), human GAL1 (PCT International Publication No. WO 95/2260), human GAL2 (PCT International Publication No. WO 97/26853).
Binding data were analyzed using nonlinear regression and statistical techniques available in the GraphPAD Prism package (San Diego, CA). Enzymatic assay data were derived from a standard curve of reference compound data.

| Ki (indolones) [nM] | Structure (SMILES) | Ki (pyrimidines) [nM] |
| --- | --- | --- |
| 728 | O=C1/C(=N\c2ccc(-c3ccsc3)cc2)c2ccccc2N1c1ccccc1 [Example 304, (3Z)-1-PHENYL-3-{[4-(3-THIENYL)PHENYL]IMINO}-1,3-DIHYDRO-2H-INDOL-2-ONE] |  |
|  | Cc1ccc(Nc2cc(N(C)C)nc(N3CCN(c4ccccn4)CC3)n2)cc1Br [Example 240] | 77 |
| 114 | Cc1cccc(/N=C2\C(=O)N(c3ccsc3)c3ccccc32)c1 [Example 271] |  |
|  | CN(C)c1cc(Nc2cccc(C(F)(F)F)c2)nc(N2CCN(c3ccccn3)CC2)n1 [Example 125] | 75 |
| 875 | O=C1/C(=N\c2ccc3cn[nH]c3c2)c2ccccc2N1c1ccccc1 [Example 301, (3Z)-3-(1H-INDAZOL-6-YLIMINO)-1-PHENYL-1,3-DIHYDRO-2H-INDOL-2-ONE] |  |
|  | COc1cccc(Nc2cc(N(C)C)nc(N(C)CCc3ccccn3)n2)c1 [Example 177] | 142 |
|  | CN(C)c1cc(Nc2ccccc2Cc2ccccc2)nc(N2CCN(c3ccccn3)CC2)n1 [Example 186] | 69 |
|  | CN(C)c1cc(Nc2cccc(OCc3ccccc3)c2)nc(N2CCN(c3cccc(Br)c3)CC2)n1 [Example 203] | 52 |
|  | CN(C)c1cc(Nc2cnc3ccccc3c2)nc(N2CCN(c3ccccn3)CC2)n1 [Example 132] | 618 |
| 26 | O=C1/C(=N\c2ccc(F)c(F)c2)c2ccccc2N1c1ccccc1 [Example 285, (3Z)-3-[(3,4-DIFLUOROPHENYL)IMINO]-1-PHENYL-1,3-DIHYDRO-2H-INDOL-2-ONE] |  |
|  | COc1ccccc1CCNc1nc(Nc2ccc(C)cc2)cc(N(C)C)n1 [Example 150] | 180 |
|  | Cc1ccc(Nc2cc(N(C)C)nc(N3CCN(c4cccc(OCc5ccccc5)c4)CC3)n2)cc1 [Example 131] | 20 |
| 333 | O=C1/C(=N\c2cccc3ncccc23)c2ccccc2N1c1ccccc1 [Example 282, (3Z)-1-PHENYL-3-(5-QUINOLINYLIMINO)-1,3-DIHYDRO-2H-INDOL-2-ONE] |  |
| 136 | O=C1C(=Nc2ccc(Cl)nc2)c2ccccc2N1c1ccccc1 (mixture of isomers) [Example 113] |  |
| 742 | O=C1/C(=N\c2cccc(C(F)(F)F)c2)c2ccccc2N1C1CCOCC1 [Example 300, (3Z)-1-TETRAHYDRO-2H-PYRAN-4-YL-3-{[3-(TRIFLUOROMETHYL)PHENYL]IMINO}-1,3-DIHYDRO-2H-INDOL-2-ONE] |  |
| 42 | O=C1/C(=N\c2cccc(Cl)c2)c2ccccc2N1c1ccsc1 [Example 270, (3Z)-3-[(3-CHLOROPHENYL)IMINO]-1-(3-THIENYL)-1,3-DIHYDRO-2H-INDOL-2-ONE] |  |
|  | CN(C)c1cc(NC2CCC(C(C)(C)C)CC2)nc(N2CCN(Cc3ccccc3)CC2)n1 (stereo not shown) [Example 169] | 77 |
|  | CN(C)c1cc(Nc2ccc(OCc3ccccc3)cc2)nc(N2CCN(c3ccccn3)CC2)n1 [Example 117] | 61 |
|  | CN(C)c1cc(Nc2cc(F)c(F)c(F)c2)nc(N2CCN(c3ccccn3)CC2)n1 [Example 221] | 213 |
|  | CN(C)c1cc(Nc2cccc(F)c2)nc(Nc2ccccc2)n1 [Example 57] | 360 |
|  | Cc1ccc(Nc2cc(N3CCCCC3)nc(N3CCN(c4cccc(C(F)(F)F)n4)CC3)n2)cc1 [Example 33] | 181 |
|  | Cc1ccc(Nc2cc(N(C)C)nc(N3CCN(Cc4ccccc4)CC3)n2)cc1Cl [Example 172] | 20 |
|  | CCCCCCCc1ccc(Nc2cc(N(C)C)nc(N3CCN(c4ccccn4)CC3)n2)cc1 [Example 189] | 26 |
|  | CN(C)c1cc(Nc2ccc(C(C)(C)C)cc2)nc(Nc2ccccc2)n1 [Example 63] | 731 |
|  | COc1ccc(CN2CCN(c3nc(Nc4ccc(C)cc4)cc(N(C)C)n3)CC2)cc1 [Example 235] | 114 |
|  | CN(C)c1cc(NC2CCc3ccccc3C2)nc(N2CCN(Cc3ccccc3)CC2)n1 (stereo not shown) [Example 173] | 117 |

| Ki (indolones) [nM] | Structure (SMILES) | Ki (pyrimidines) [nM] |
| --- | --- | --- |
|  | CN(C)c1cc(Nc2ccc(C(F)(F)F)cc2)nc(N2CCN(Cc3ccccc3)CC2)n1 [Example 229] | 37 |
|  | CN(C)c1cc(Nc2ccc3c(c2)OCCO3)nc(N2CCN(c3ccccn3)CC2)n1 [Example 119] | 540 |
| 136 | Cc1ccc(/N=C2\C(=O)N(c3ccsc3)c3ccccc32)cc1 [Example 263] |  |
|  | COc1ccc(OC)c(Nc2cc(N(C)C)nc(N3CCN(Cc4ccccc4)CC3)n2)c1 [Example 227] | 600 |
|  | COc1cccc(CN2CCN(c3nc(Nc4ccc(C)cc4)cc(N(C)C)n3)CC2)c1 [Example 142] | 28 |
| 103 | O=C1C(=Nc2cccc(C(F)(F)F)c2)c2ccccc2N1c1ccsc1 (mixture of isomers) [Example 109, 1-(3-THIENYL)-3-{[3-(TRIFLUOROMETHYL)PHENYL]IMINO}-1,3-DIHYDRO-2H-INDOL-2-ONE] |  |
|  | CC1CCC(Nc2cc(N(C)C)nc(N3CCN(Cc4ccccc4)CC3)n2)CC1 (stereo not shown) [Example 157] | 273 |
| 55 | Cc1cc(N=C2C(=O)N(c3ccsc3)c3ccccc32)ccc1Cl [Example 290] |  |
|  | CN(C)c1cc(Nc2ccc(Oc3ccccc3)cc2)nc(Nc2ccccc2)n1 [Example 64] | 572 |
|  | COc1cccc(Nc2cc(N(C)C)nc(N(C)CCc3ccccc3)n2)c1 [Example 251] | 54 |
|  | CN(C)c1cc(Nc2cc(F)c(F)cc2F)nc(N2CCN(c3ccccn3)CC2)n1 [Example 219] | 558 |
|  | CN(C)c1cc(Nc2ccc(C(F)(F)F)cc2Cl)nc(N2CCN(Cc3ccccc3)CC2)n1 [Example 244] | 55 |
|  | Cc1cc(Nc2cc(N(C)C)nc(N3CCN(c4ccccn4)CC3)n2)ccc1F [Example 200] | 311 |
|  | Cc1ccc(Nc2cc(N(C)C)nc(N3CCN(Cc4cccs4)CC3)n2)cc1 [Example 174] | 325 |
|  | CN(C)c1cc(Nc2ccc(Cl)cc2)nc(N2CCN(c3ccccn3)CC2)n1 [Example 194] | 248 |
|  | Cc1ccc(Nc2cc(N(C)C)nc(N(C)CCc3ccccn3)n2)cc1 [Example 161] | 114 |
|  | CN(C)c1cc(Nc2cccc(Cl)c2Cl)nc(N2CCN(c3ccccn3)CC2)n1 [Example 218] | 616 |
|  | Cc1ccc(Nc2cc(N(C)C)nc(NCCc3cccs3)n2)cc1 [Example 237] | 404 |
|  | CCC(C)c1ccc(Nc2cc(N(C)C)nc(N3CCN(c4ccccn4)CC3)n2)cc1 (stereo not shown) [Example 211] | 58 |
|  | Cc1ccc(Nc2cc(N(C)C)nc(N3CCN(c4cnccn4)CC3)n2)cc1 [Example 181] | 750 |
| 46 | O=C1/C(=N\c2ccc(I)cc2)c2ccccc2N1c1ccsc1 [Example 262, (3Z)-3-[(4-IODOPHENYL)IMINO]-1-(3-THIENYL)-1,3-DIHYDRO-2H-INDOL-2-ONE] |  |
|  | CCCCCc1ccc(Nc2cc(N(C)C)nc(N3CCN(c4ccccn4)CC3)n2)cc1 [Example 210] | 58 |
| 41 | O=C1/C(=N\c2cccc(Br)c2)c2ccccc2N1c1ccccc1 [Example 307, (3Z)-3-[(3-BROMOPHENYL)IMINO]-1-PHENYL-1,3-DIHYDRO-2H-INDOL-2-ONE] |  |
| 377 | O=C1/C(=N\c2ccc3ncsc3c2)c2ccccc2N1c1ccccc1 [Example 299, (3Z)-3-(1,3-BENZOTHIAZOL-6-YLIMINO)-1-PHENYL-1,3-DIHYDRO-2H-INDOL-2-ONE] |  |
|  | Cc1ccc(Nc2cc(N3CCC(=O)CC3)nc(N3CCN(Cc4ccccc4)CC3)n2)cc1 [Example 184] | 163 |

| Structure (SMILES) | Ki (indolones) [nM] | Ki (pyrimidines) [nM] |
| --- | --- | --- |
| O=C1/C(=N\c2cccc(C(F)(F)F)c2)c2ccccc2N1Cc1cccnc1 [Example 277] | 198 |  |
